The test system of test [1] is cultured human keratinocytes. The test can be described thus: Keratinocyte culture: counts of total cells and basal cells after one week of dosing. The format is cell-based. The following applies: seven days, dose-dependent, Figures 2-5. Here is the method:
Keratinocytes were grown in culture as follows. NIH 3T3 cells were plated at 0.5 x 10⁵ cells per 35-mm tissue-culture dish, and two days later were lethally irradiated with a cobalt-60 source (5000 rads). Keratinocytes were obtained from neonatal foreskin after overnight trypsinization at 4°C and treatment with 0.02% EDTA. Keratinocytes were plated in 2 ml of serum-free medium per dish on the lethally irradiated 3T3 cells. Each experiment was performed on primary or secondary keratinocyte cultures obtained from different skin samples. The serum-free medium consisted of Dulbecco's Modified Eagle's Medium (DMEM) with high (1.8 mM) concentration of calcium (M.A. Bioproducts, Walkersville, MD) containing 7 growth factors: epidermal growth factor (25 ng/ml); hydrocortisone (203 ng/ml); insulin (5 µg/ml); prostaglandin E₁ (50 ng/ml); transferrin (5 µg/ml; prostaglandin E₁ (50 ng/ml); cholera toxin (0.1 µg/ml); (Sigma Chemical Co., St. Louis, MO); and selenous acid (2 ng/ml) (Collaborative Research, Lexington, MA). At one week in culture, hydrocortisone and cholera toxin were removed from the medium, and the dishes were washed with 0.02% EDTA to remove any remaining 3T3 cells. […]
After seven days the cultures were evaluated for their total cell content, number of basal cells, and cornified envelopes as described above. […]

The test system of test [2] is cultured human keratinocytes. The test can be described thus: Keratinocyte differentiation: count of cornified envelopes after one week of dosing. The format is cell-based. The following applies: dose-dependent, relative to control cultures, Figures 6 and 7. Here is the method: Keratinocytes were grown in culture as follows. NIH 3T3 cells were plated at 0.5 x 10⁵ cells per 35-mm tissue-culture dish, and two days later were lethally irradiated with a cobalt-60 source (5000 rads). Keratinocytes were obtained from neonatal foreskin after overnight trypsinization at 4°C and treatment with 0.02% EDTA. Keratinocytes were plated in 2 ml of serum-free medium per dish on the lethally irradiated 3T3 cells. Each experiment was performed on primary or secondary keratinocyte cultures obtained from different skin samples. The serum-free medium consisted of Dulbecco's Modified Eagle's Medium (DMEM) with high (1.8 mM) concentration of calcium (M.A. Bioproducts, Walkersville, MD) containing 7 growth factors: epidermal growth factor (25 ng/ml); hydrocortisone (203 ng/ml); insulin (5 µg/ml); prostaglandin E₁ (50 ng/ml); transferrin (5 µg/ml; prostaglandin E₁ (50 ng/ml); cholera toxin (0.1 µg/ml); (Sigma Chemical Co., St. Louis, MO); and selenous acid (2 ng/ml) (Collaborative Research, Lexington, MA). At one week in culture, hydrocortisone and cholera toxin were removed from the medium, and the dishes were washed with 0.02% EDTA to remove any remaining 3T3 cells.
In addition, 1,25-(OH)₂D₃ was tested, alone and in combination with PTH (7-34), and PTH (1-34) and PTH (7-34) were tested together. […]

Test [3] relates to canine adenylate cyclase system. The following applies: cited from earlier work.

Take `C=C1/C(=C\C=C2/CCC[C@]3(C)[C@@H]([C@H](C)CCCC(C)(C)O)CC[C@@H]23)C[C@@H](O)C[C@@H]1O` [1,25(OH)₂D₃, 1,25-dihydroxyvitamin D₃]: the “total number of cells and the number of basal cells in the cultures” value in test [1] was “in a dose-dependent manner decreased”. For the same compound, in test [2], the “total number of cornified envelopes (percent of control)” value is listed as “increased, in a dose-dependent manner”.
With “Rat PTH (1-34): rat PTH 1-34 fragment, 5 amino acid sequence difference from the 1-34 region of human and bovine PTH”, in test [3] (more active than bovine PTH (1-34)), the “activity relative to bovine PTH (1-34)” value was 2-4 fold. Besides, in test [3] (more active than human PTH (1-34)), the “activity relative to human PTH (1-34)” value is recorded as 8-10 fold.

The values above are taken from patent EP0415924B1, “REGULATION OF CELL PROLIFERATION AND DIFFERENTIATION USING PEPTIDES” (HOLICK, Michael F, priority 1987, dated 1996).
